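Interpolation was linear, between the two tested concentrations surrounding the appropriate level; five concentrations were tested over 48 hours in 96-well plates. The concentration for 50% growth inhibition is given as GI50. TGI marks complete inhibition of growth.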
Columns and labels:
Experiment in all cases: NCI anticancer screen, dose series, 48 h
[1] = tested on: UO-31 renal
[2] = tested on: SK-MEL-28 melanoma
[3] = tested on: MALME-3M melanoma
[4] = tested on: SF-295 CNS
[5] = tested on: A498 renal
[6] = tested on: TK-10 renal
[7] = tested on: HS 578T breast
[8] = tested on: U251 CNS
[9] = tested on: UACC-257 melanoma
[10] = tested on: SK-OV-3 ovarian
[11] = tested on: SNB-75 CNS
[12] = tested on: K-562 leukemia
[13] = tested on: CAKI-1 renal
[14] = tested on: OVCAR-8 ovarian
[15] = tested on: SR leukemia
[16] = tested on: HT29 colon
[17] = tested on: COLO 205 colon
[18] = tested on: SF-268 CNS
[19] = tested on: UACC-62 melanoma
[20] = tested on: HL-60(TB) leukemia
[21] = tested on: PC-3 prostate
[22] = tested on: A549 NSCLC
[23] = tested on: KM12 colon
[24] = tested on: RXF 393 renal
[25] = tested on: M14 melanoma
[26] = tested on: HCC-2998 colon
[27] = tested on: ACHN renal
[28] = tested on: OVCAR-4 ovarian
[29] = tested on: SK-MEL-2 melanoma
[30] = tested on: NCI-H23 lung
[31] = tested on: MOLT-4 leukemia
[32] = tested on: NCI-H522 lung
[33] = tested on: MDA-MB-435
[34] = tested on: SF-539 CNS
[35] = tested on: 786-0 renal
[36] = tested on: T-47D breast
[37] = tested on: HOP-62 NSCLC
[38] = tested on: SW-620 colon
[39] = tested on: OVCAR-5 ovarian
[40] = tested on: NCI-H460 lung
[41] = tested on: HCT-116 colon
[42] = tested on: SK-MEL-5 melanoma
[43] = tested on: CCRF-CEM leukemia
[44] = tested on: MCF7 breast
[45] = tested on: SNB-19 CNS
[46] = tested on: HOP-92 NSCLC
[47] = tested on: MDA-MB-231 breast
[48] = tested on: DU-145 prostate
[49] = tested on: RPMI-8226 leukemia

CC(=O)Oc1ccccc1C(=O)N=C1[Se]CCN1C(=O)c1ccccc1OC(C)=O
GI50 [1]: 424 nM
TGI [1]: 1530 nM
GI50 [2]: 492 nM
TGI [2]: 3250 nM
GI50 [3]: 380 nM
TGI [3]: 1450 nM
GI50 [4]: 1430 nM
TGI [4]: 2800 nM
GI50 [5]: 1020 nM
TGI [5]: 2400 nM
GI50 [6]: 491 nM
TGI [6]: 1870 nM
GI50 [7]: 507 nM
TGI [7]: 3020 nM
GI50 [8]: 734 nM
TGI [8]: 2180 nM
GI50 [9]: 1020 nM
TGI [9]: 3200 nM
GI50 [10]: 1050 nM
TGI [10]: 2820 nM
GI50 [11]: 1250 nM
TGI [11]: 3000 nM
GI50 [12]: 940 nM
TGI [12]: > 100000 nM
GI50 [13]: 671 nM
TGI [13]: 1980 nM
GI50 [14]: 637 nM
TGI [14]: 2700 nM
GI50 [15]: 1510 nM
TGI [15]: > 100000 nM
GI50 [16]: 637 nM
TGI [16]: 4460 nM
GI50 [17]: 1840 nM
TGI [17]: 4070 nM
GI50 [18]: 483 nM
TGI [18]: 1790 nM
GI50 [19]: 1040 nM
TGI [19]: 2840 nM
GI50 [20]: 708 nM
TGI [20]: 8470 nM
GI50 [21]: 1060 nM
TGI [21]: 4880 nM
GI50 [22]: 832 nM
TGI [22]: 2640 nM
GI50 [23]: 1100 nM
TGI [23]: > 100000 nM
GI50 [24]: 355 nM
TGI [24]: 1510 nM
GI50 [25]: 523 nM
TGI [25]: 2200 nM
GI50 [26]: 2150 nM
TGI [26]: 5790 nM
GI50 [27]: 1400 nM
TGI [27]: 2860 nM
GI50 [28]: 1460 nM
TGI [28]: 7240 nM
GI50 [29]: 1420 nM
TGI [29]: 3910 nM
GI50 [30]: 1560 nM
TGI [30]: 5430 nM
GI50 [31]: 621 nM
TGI [31]: > 100000 nM
GI50 [32]: 1220 nM
TGI [32]: 2700 nM
GI50 [33]: 462 nM
TGI [33]: 1870 nM
GI50 [34]: 1060 nM
TGI [34]: 3210 nM
GI50 [35]: 1460 nM
TGI [35]: 2800 nM
GI50 [36]: 1840 nM
TGI [36]: 5060 nM
GI50 [37]: 546 nM
TGI [37]: 1880 nM
GI50 [38]: 1520 nM
TGI [38]: 6090 nM
GI50 [39]: 839 nM
TGI [39]: 6110 nM
GI50 [40]: 379 nM
TGI [40]: 2060 nM
GI50 [41]: 320 nM
TGI [41]: 1150 nM
GI50 [42]: 566 nM
TGI [42]: 2050 nM
GI50 [43]: 556 nM
TGI [43]: > 100000 nM
GI50 [44]: 1120 nM
TGI [44]: 5060 nM
GI50 [45]: 1230 nM
TGI [45]: 4310 nM
GI50 [46]: 1850 nM
TGI [46]: 3580 nM
GI50 [47]: 472 nM
TGI [47]: 3060 nM
GI50 [48]: 610 nM
TGI [48]: 2180 nM
GI50 [49]: 2940 nM
TGI [49]: 8460 nM

Reference: PubChem BioAssay (NCI)
